# Data: patent US20080019961A1, “Hedgehog signaling pathway antagonist cancer treatment” (Regents of the University of Michigan, priority 2006, published 2008)
# Where two headings read alike, the source gives them in different places. Square brackets hold non-standard residues; d marks the D form. Peptide text beside a SMILES is read from it. * marks the point of attachment. Nle = CCCC[C@H](N)C(=O)O; Cbz = O=C(OCc1ccccc1)*
# Columns and labels:
# Format in all cases: cell-based, human
# [1] = test system: mammary stem/progenitor cells in mammospheres; experiment: Primary and secondary mammosphere formation (in vitro self-renewal assay)
# [2] = test system: mammosphere branching morphogenesis; experiment: Mammosphere branching morphogenesis in 3-D Matrigel culture; details: 300 nM Cyclopamine
# Protocol: Briefly, 30 mammospheres were suspended in 1 ml of BD Matrigel™ Matrix (Cat. 354234, BD Biosciences, Palo Alto, Calif.) and Ham's F-12 medium (BioWbittaker) with 5% serum at a ratio of 1:1, and plated 1 ml of the mixture into one well of 24-well cold plates and each group of mammospheres was performed in quadruplicates. After the matrigel was solidified, 1 ml of Ham's F-12 medium (BioWhittaker) with 5% serum was added to the top of the matrigel. The experiments were repeated with mammospheres derived from at least three different patients.
# [3] = test system: PTCH1, Gli1, Gli2 and HES1 mRNA; experiment: Hh and Notch pathway gene mRNA in mammospheres by real-time RT-PCR; details: for block of Shh-induced PTCH1, Gli1, Gli2 and HES1 expression: 3 μg/ml Shh with 300 nM Cyclopamine or 5 μM GSI; for block of DSL-induced HES1, PTCH1, Gli1 and Gli2 expression: 10 μM DSL with 5 μM GSI or 300 nM Cyclopamine
# Protocol: Single cells from epithelial organoids were plated in 6-well ultra-low attachment plates (Coming) at a density of 100,000 viable cells/ml. Cells were cultured in 2 ml of a serumfree MEBM per well. […] Cells were incubated for 7 days in the presence of different treatments as follows. For the treatment with Hedgehog agonists and antagonist, Shh was used at 1.5 μg/ml, 3 μg/ml and 6 μg/ml in the presence or absence of 300 riM of CP or 5 μM of GSI. CP was used at 150 nM, 300 nM and 600 nM concentrations, and the control was 12% 1×PBS with 0.06% BSA. For the treatment with Notch agonists and antagonist, DSL was used at 10 μM in the presence or absence of 5 μM of GSI or 300 nM of CP, and the controls consisted of 10 μM of scrambled Notch peptide. All treatments were continued for 10 days, with agonists and antagonists added every two or three days when medium was changed.
# Mammospheres were then collected for in vitro self-renewal assays and Real-time quantitative RT-PCR. For reverse-transcriptase reactions, 1 μg of total RNA from mammospheres or differentiated cells on collagen-coated plates was reverse transcribed with 200 U M-MLV Reverse Transcriptase (GibcoBRL) at 42° C. for 1 hour in the presence of 5 mM each of dATP, dCTP, dGTP and dTTP, 4 μl 5× 1 st strand buffer (GibcoBRL), 0.01M DDT, 1 U RNA Guard RNase inhibitor (GibcoBRL), and 2.5 µM random primers in a total volume of 20 μl. The reaction was terminated by heating to 95° C. for 3 minutes. Real-time quantitative PCR (TaqMan™) primers and probes were purchased from AppliedBiosytems as Assays-on-Demand™ Gene Expression Products. Real-time PCRs were performed following the supplier's instructions (Applied Biosystems). 20 μl of PCR mixture contained 10 μl of 2× Taqman™ universal PCR Master Mix, 1 μl of 20× working stock of gene expression assay mix, and 50 ng of RNA converted cDNA. PCR was performed in a ABI PRISM® 7900HT sequence detection system with 384-Well block module and automation accessory (Applied Biosystems) by incubation at 50° C. for 2 min and then 95° C. for 10 min followed by 40 amplification cycles (15 s of denaturation at 95° C. and 1 min of hybridization and elongation at 60° C.). The reaction for each sample was performed in quadruplicates. Fluorescence of the PCR products was detected by the same apparatus. The number of cycles that it takes for amplification plot to reach the threshold limit, the Ct-value was used for quantification. RPLP0 was used for normalization.
# In order to determine whether activation of the Notch pathway could affect Hh targets, Notch signaling was activated by utilizing the DSL ligand which binds to all Notch receptors (Dontu et al., 2004).
# Bmi-1 mRNA = Bmi-1 mRNA in mammospheres by real-time RT-PCR; details: for block of Shh-induced Bmi-1 expression: Shh with Cyclopamine or GSI
SMILES,Cyclopamine inhibition of primary mammosphere formation on addition of Shh [1],Cyclopamine inhibition of secondary mammosphere formation on addition of Shh [1],block of DSL-stimulated mammary stem cell self-renewal [1],block of the Shh effect on mammary stem cell self-renewal [1],decrease of average cell number in primary mammospheres vs control [1],decrease of average cell numbers per secondary mammosphere [1],decrease of primary mammosphere formation vs control [1],decrease of secondary mammospheres vs control [1],effect of Cyclopamine on the effects of Gli1 or Gli2 overexpression [1],"effects on mammosphere formation, lowest dose [1]",effect on branch formation [2],"block of Shh-induced PTCH1, Gli1, Gli2 and HES1 expression [3]","block of DSL-induced HES1, PTCH1, Gli1 and Gli2 expression [3]",block of Shh-induced Bmi-1 expression (Bmi-1 mRNA),block of the Shh effect on mammary stem cell self-renewal ([1]; 3 μg/ml Shh with 300 nM Cyclopamine or 5 μM GSI),block of DSL-stimulated mammary stem cell self-renewal ([1]; 10 μM DSL with 5 μM GSI or 300 nM Cyclopamine),block of DSL-induced Bmi-1 expression (Bmi-1 mRNA; DSL with GSI or Cyclopamine)
CC1=C2C[C@H]3[C@@H](CC=C4C[C@@H](O)CC[C@@]43C)[C@@H]2CC[C@]12O[C@@H]1C[C@H](C)CN[C@H]1[C@H]2C [Cyclopamine],reversal of inhibition,reversed,not,blocked,51%,56%,45%,54%,unaffected,no effects,almost completely blocked branch formation,partially blocked,partially blocked and not,blocked,–,–,–
"CCCC[C@@H](C=O)NC(=O)[C@H](CC(C)C)NC(=O)[C@H](CC(C)C)NC(=O)OCc1ccccc1 [GSI, Z-Leu-Leu-Nle-CHO] (Cbz-Leu-Leu-[Nle]-aldehyde)",–,–,–,–,–,–,–,–,–,–,–,not,completely blocked,not,did not block,blocked,completely blocked
